Assay results taken from patent publication US10294217B2, “Fluoroindole derivatives as muscarinic M1 receptor positive allosteric modulators” (Suven Life Sciences Limited, priority 2015, dated 2019).
Counter-ions that a name gives are not always drawn. Like-named read-outs stand apart in the source and are kept apart here.

What was measured:
M1 = M1 (Homo sapiens (Human), UniProt P11229); conditions: cited from earlier work
[1] = cited from earlier work
[2] = molecular target: human Muscarinic M1 receptor (Homo sapiens (Human), UniProt P11229); assay: Allosteric potency EC50 for muscarinic M1 receptor (CHO cells, pCRE-Luc reporter); format: cell-based; conditions: luciferase activity, 4 hours
Description: Determination of Allosteric Potency EC50 Values for Muscarinic M1 Receptor:
A stable CHO cell line expressing recombinant human Muscarinic M1 receptor and pCRE-Luc reporter system was used for cell-based assay. The assay offers a non-radioactive based approach to determine binding of a compound to GPCRs. In this specific assay, the level of intracellular cyclic AMP which is modulated by activation or inhibition of the receptor is measured. The recombinant cells harbor luciferase reporter gene under the control of cAMP response element.
The above cells were grown in 96 well clear bottom white plates in Hams F12 medium containing 10% fetal bovine serum (FBS). Prior to the addition of compounds or standard agonist, cells were serum starved overnight. Increasing concentrations of test compounds were added along with EC20 of acetylcholine in OptiMEM medium to the cells. The incubation was continued at 37° C. in CO2 incubator for 4 hours. Medium was removed and cells were washed with phosphate buffered saline. The cells were lysed and luciferase activity was measured in a Luminometer. Luminescence units were plotted against the compound concentrations using Graphpad software. EC50 values of the compounds were defined as the concentration required in stimulating the luciferase activity by 50% in presence of EC20 of acetylcholine and the results are provided in table 1.

[3] = Protein binding assay (HT dialysis), rat matrices; format: in vitro ADME; conditions: Mean ± SEM
Description: (§1) Unbound fractions of new chemical entities in plasma, brain homogenate and liver microsomes were determined using high-throughput dialysis (HT dialysis). Briefly, dialysis membranes were soaked in deionized water for 20 minutes and then in deionized water with 30% ethanol for 15 minutes and finally in phosphate buffer until use. Membranes were rinsed in phosphate buffer before assembling. The membranes were layered between teflon bars of dialysis assembly. Stock solutions of test compounds were prepared at 10 mM in DMSO, diluted to 1 mM in acetonitrile and further diluted to 100 μM in mixture of water and acetonitrile (1:1 v/v). Human plasma (pool of 3) was prepared from human blood (3 donors) by centrifuging at 4000 rpm for 10 min at 4° C. Rat and dog blood were obtained on the day of the study and centrifuged to obtain plasma. Rat brains were isolated, cleaned and homogenized with 2 volumes of buffer (3 fold dilution). Liver microsomes were prepared at 0.5 mg/mL in phosphate buffer (100 mM, pH 7.4). The dialysate chambers were loaded with 150 μL of 100 mM phosphate buffer (pH 7.4) in triplicates. The matrix chambers were loaded with 150 μL of the plasma or brain homogenate or microsomal suspension spiked with test compounds at a final concentration of 1 μM. 50 μL of the sample was removed from both the chambers at 0 h. The plate was sealed and incubated at 37° C. for 6 h at 100 rpm. After 6 h, 50 μL of the sample was removed from both the chambers. Equal volumes of buffer or human plasma/microsomal suspension were added to the plasma/microsomal and buffer samples respectively to create identical sample matrices for analysis. The samples were precipitated with 150 μL of acetonitrile containing fluoxetine as an internal standard. All the samples were centrifuged at 10000 rpm for 10 minutes at 4° C.

[4] = Protein binding assay (HT dialysis), dog matrices; format: in vitro ADME; conditions: Mean ± SEM
Description: as §1

[5] = Protein binding assay (HT dialysis), human matrices; format: in vitro ADME; conditions: Mean ± SEM
Description: as §1

[6] = Rodent brain penetration study; format: in vivo, Male Wistar rats; conditions: male, Wistar, rat, oral; 3 mg/kg, p.o.; brain-plasma ratio; read-out: Single dose Rat Brain Penetration (Cb/Cp)
Description: WO2015044072A1 patent application discloses indole derivatives as M1 PAM compounds. […] This makes these compounds less ideal for the treatment of CNS disorders.
Rodent Brain Penetration Study
Male Wistar rats (260±40 grams) were used as experimental animals. Three animals were housed in each cage. Animals were given water and food ad libitum throughout the experiment and maintained on a 12 hours light/dark cycle.
Brain penetration was determined in discrete manner in rats. One day prior to dosing day, male Wistar rats were acclimatized and randomly grouped according to their weight. At each time point (0.5, 1 and 2 hours) n=3 animals were used.
The test compounds were suitably preformulated and administered orally at (free base equivalent) 3 mg/kg. Blood samples were removed via cardiac puncture by using isoflurane anesthesia. The animals were sacrificed to collect brain tissue. Plasma was separated and brain samples were homogenized and stored frozen at ˜20° C. until analysis. The concentrations of the test compounds in plasma and brain were determined using LC-MS/MS method.
The test compounds were quantified in plasma and brain homogenate by qualified LC-MS/MS method using suitable extraction technique. The test compounds were quantified in the calibration range of 1-500 ng/mL in plasma and brain homogenate. Study samples were analyzed using calibration samples in the batch and quality control samples spread across the batch.

Male Wistar rats = assay: Object recognition task model; format: in vivo; conditions: 3 mg/kg, p.o.
Description: Object Recognition Task Model
The cognition enhancing properties of compounds of this invention were estimated by using this model.
Male Wistar rats (8-10 weeks old) were used as experimental animals. Four animals were housed in each cage. Animals were kept on 20% food deprivation from a day prior to experimentation. Water was provided ad libitum throughout the experiment. Animals were maintained on a 12 hours light/dark cycle in temperature and humidity controlled room. The experiment was carried out in an open field made up of acrylic. Rats were habituated to individual arenas (open field) for 1 hour in the absence of any objects on day 1.
One group of 12 rats received vehicle and another set of animals received compound of the formula (I), before the familiar (T1) and choice (T2) trials. During the familiarization phase, (T1), the rats were placed individually in the arena for 3 minutes, in which two identical objects (a1 and a2) were positioned 10 cm from the wall. 24 hours after T1, trial for long-term memory test was performed. The same rats were placed in the same arena as they were placed in T1 trial. During the choice phase (T2) rats were allowed to explore the arena for 3 minutes in presence of a copy of familiar object (a3) and one novel object (b). During the T1 and T2 trial, explorations of each object (defined as sniffing, licking, chewing or having moving vibrissae whilst directing the nose towards the object at a distance of less than 1 cm) were recorded using stopwatch. • T1 is the total time spent exploring the familiar objects (a1+a2). • T2 is the total time spent exploring the familiar object and novel object (a3+b). • Discriminative index=Time spent with novel object/(time spent with novel and familiar object).
The object recognition test was performed as described by Behavioural Brain Research, 1988, 31, 47-59 and the results are provided in table 5.

[7] = cited from earlier work; remark: listed apart in the source
[8] = Rodent pharmacokinetic study; format: in vivo, Male Wistar rats; conditions: male, Wistar
Description: Rodent Pharmacokinetic Study
Male Wistar rats (260±50 grams) were used as experimental animals. Animals were housed individually in polypropylene cage. Two days prior to study, male Wistar rats were anesthetized with isoflurane for surgical placement of jugular vein catheter. Rats were randomly divided for oral (3 mg/kg) and intravenous (i.v.) (1 mg/kg) dosing (n=3/group) and fasted overnight before oral dosing (p.o.). However, rats allocated to intravenous dosing food and water was provided ad libitum.
At pre-determined point, blood was collected through jugular vein and replenished with an equivalent volume of normal saline. Collected blood was transferred into a labeled eppendorf tube containing 10 μL of heparin as an anticoagulant. Typically blood samples were collected at following time points: 0.08, 0.25, 0.5, 1, 2, 4, 6, 8, and 24 hours post dose. Blood was centrifuged at 4000 rpm for 10 minutes. Plasma was separated and stored frozen at −80° C. until analysis. The concentrations of the test compounds were quantified in plasma by qualified LC-MS/MS method using suitable extraction technique. The test compounds were quantified in the calibration range around 1-1000 ng/mL in plasma. Study samples were analyzed using calibration samples in the batch and quality control samples spread across the batch.
Pharmacokinetic parameters Cmax, AUCt, T1/2, Clearance, and Bioavailability (% F) were calculated by non-compartmental model using standard non-compartmental model by using Phoenix WinNonlin 6.0.2 or 6.0.3 version Software package and the results are tabulated in table 3.

[9] = in presence of EC20 of acetylcholine, read-out: hM1 PAM EC50
[10] = mean ± S.E.M, choice trial 24 hours after T1
[11] = hM1 PAM EC50, in presence of EC20 of acetylcholine

In the case of `N#CC1(c2ccccn2)CCN(Cc2cc(C(=O)O)c(=O)n3ccccc23)CC1` [PQCA, 1-{[4-cyano-4-(pyridine-2-yl)piperidin-1-yl]methyl}-4-oxo-4H-quinolizine-3-carboxylic acid], the “selectivity for M1 over the other muscarinic receptor subtypes” value (M1) is listed as “highly selective”, the gastrointestinal side effects ([1]; at doses equal to or less than a fivefold margin from the minimum effective dose required to improve cognition) is listed as “no gastrointestinal side effects” and the “efficacy in preclinical models of cognition” value ([1]; several preclinical models of cognition) is listed as “efficacious”.
`O=C(N[C@H]1CCCC[C@@H]1O)c1cn(Cc2ccnc(Cl)c2)c2c(F)ccc(F)c12` [Example 6, N-[(1S,2S)-2-Hydroxycyclohexyl]-1-(2-Chloropyridin-4-ylmethyl)-4,7-difluoro-1H-indole-3-carboxamide] gave an EC50 [2, 9] of 122 nM, a fraction unbound at 6 h, 1 μM ([3]; pH 7.4, Rat brain homogenate, 37° C., n = 3, read-out: Fu Brain) of 0.014 ± 0.001 and a fraction unbound at 6 h, 1 μM ([3]; pH 7.4, Rat liver microsomes 0.5 mg/mL, n = 3, read-out: Fu Microsomes) of 0.56 ± 0.048. The fraction unbound at 6 h, 1 μM ([3]; pH 7.4, Rat plasma, 37° C., n = 3, read-out: Fu Plasma) was 0.05 ± 0.008, the fraction unbound at 6 h, 1 μM ([4]; pH 7.4, Dog liver microsomes 0.5 mg/mL, n = 3, read-out: Fu Microsomes) was 0.713 ± 0.041 and the fraction unbound at 6 h, 1 μM ([4]; pH 7.4, Dog plasma, 37° C., n = 3, read-out: Fu Plasma) was 0.043 ± 0.002. For the same compound, the fraction unbound at 6 h, 1 μM ([5]; pH 7.4, Human liver microsomes 0.5 mg/mL, n = 3, read-out: Fu Microsomes) was 0.546 ± 0.018, the fraction unbound at 6 h, 1 μM ([5]; pH 7.4, Human plasma, 37° C., n = 3, read-out: Fu Plasma) was 0.03 ± 0.003 and the Kp [6] was 2.09 ± 0.46. The Inference (Male Wistar rats) was “Active”, the “Exploration time Familiar object” value (Male Wistar rats; [10]) was 15.75 ± 1.71 s and the “Exploration time Novel object” value (Male Wistar rats; [10]) was 23.67 ± 2.62 s.
For `CCCCCCOc1nsnc1C1=CCCN(C)C1` [Xanomeline], the effects on cognition ([7]; clinical Alzheimer's disease (AD) trial) is listed as “significant effects on cognition” and the gastrointestinal side effects ([7]; clinical trials) is listed as “gastrointestinal side effects led to a high dropout rate”.
For `O=C(N[C@H]1CCCC[C@@H]1O)c1cn(Cc2cc(F)ncc2F)c2c(F)ccc(F)c12` [Example 12, N-[(1S,2S)-2-Hydroxycyclohexyl]-1-(2,5-difluoropyridin-4-ylmethyl)-4,7-difluoro-1H-indole-3-carboxamide], the EC50 [2, 9] was 432 nM, the AUC(0-t) ([8]; iv, 1 mg/kg, rat plasma) was 609 ± 62 ng·h/mL and the half-life ([8]; iv, 1 mg/kg, rat plasma) was 1.6 ± 0.5 h. For the same compound, the clearance ([8]; plasma, iv, 1 mg/kg, rat) was 26.7 ± 3.4 mL/min/kg, the bioavailability ([8]; plasma, oral 3 mg/kg vs i.v. 1 mg/kg, rat, read-out: % F (Bioavailability)) was 62 ± 6% and the AUC(0-t) ([8]; oral, 3 mg/kg, rat plasma) was 1140 ± 114 ng·h/mL. The Cmax ([8]; oral, 3 mg/kg, rat plasma) was 337 ± 141 ng/mL, the half-life ([8]; oral, 3 mg/kg, rat plasma) was 3 ± 3 h and the Kp [6] was 1.64 ± 0.12.
Work on `COc1ccc(Cn2cc(C(=O)N[C@H]3CCNC[C@H]3F)c3c(F)cccc32)cc1` (single isomer, unassigned; isomer-i) [Example 38, cis-N-(3-Fluoropiperidin-4-yl)-1-(4-methoxybenzyl)-4-fluoro-1H-indole-3-carboxamide hydrochloride (Isomer-I)] yielded an EC50 [2, 11] of 1450 nM and a Kp [6] of 1.03 ± 0.17.
`COc1cccc(Cn2cc(C(=O)N[C@H]3CCNC[C@H]3F)c3c(F)cccc32)c1` (single isomer, unassigned; isomer-i) [Example 35, cis-N-(3-Fluoropiperidin-4-yl)-4-fluoro-1-(3-methoxybenzyl)-1H-indole-3-carboxamide hydrochloride (Isomer-I)] gave an EC50 [2, 11] of 1480 nM and a Kp [6] of 0.72 ± 0.03.
